Assay results taken from PMC12830989, “Subcellular glycan-mannose receptor binding kinetics correlate with myeloid cell function” (Nature Communications, 2025).
Where “and” joins values, the source holds several entries; their conditions need not be identical. Equal values may be shown once. sCy5 = sulfo-Cy5

Key:
MR^−/− BMDC = test: Glyco-PAINT-APP single-molecule glycan binding on live MR-/- BMDC; set-up: species or system mouse; conditions: Suppl. Fig 9, glycan SLP, median
Description: Single molecule imaging was performed on a Nikon Ti2 N-STORM system equipped with TIRF module, Z piezo element, perfect focus system for axial drift correction and an OkoLab incubator with temperature and CO2 controller (37 °C and 5% CO2) for live-cell imaging. Recordings were acquired using the 647 nm excitation laser (160 mW, 1.9 kW/cm^2). Upon laser excitation, fluorescence was collected by a 100x 1.49 NA oil-immersion objective, passed through a quad-band dichroic mirror (97335 Nikon), and detected by a Hamamatsu ORCA Flash 4.0 CMOS camera with 160 nm pixel size. The signal was collected using the following settings: 512 × 512 pixel region, no binning, pixel depth 16-bit, exposure time 50 ms, live-cell observation and 2D-STORM (lens out), zoom 1x, lens x0.4, and for live-cell observation at 37 °C, the correction collar was set to position 8160.
5 x 10^4 CHO-MR or 1 x 10^5 WT, MR^−/− BMDC or BMDM were seeded in 8-well glass-bottomed microscopy slides (Ibidi, 80827) in complete medium. After equilibration in the microscope incubator, fluorescent glycan was added at 5 nM for CHO-MR and 10 nM for BMDC or BMDM experiments. Then, cells were brought into focus using brightfield illumination and 2000 frames (at 50 ms intervals) were recorded within a single field-of-view at 40–60% of maximum 647 nm laser power using TIRF illumination. For indicated experiments, Cytochalasin D (Focus Biomolecules) was added to a final concentration of 10 µM for 30 min prior to acquisition.
Processing of recordings using Glyco-PAINT-APP was performed as described in a step-by-step procedure in the Supplementary Software Manual in the Supplementary Information and accompanying Supplementary Videos 1 and 2. For the TrackMate processing, a batch file (Experiment Info.csv) containing the experiment metadata and tracking parameters was created. Threshold values were set to 5, 10 or 15 such that no more than 1.500.000 spots were detected. Recordings were then processed in TrackMate using the ‘Run TrackMate Batch’ plugin provided by the Glyco-PAINT-APP. Through this plugin, spot detection and tracking by TrackMate[70] was performed as indicated in the batch file using the Simple LAP tracker algorithm with a maximum frame gap of 3, a max linking distance of 0.6 μm and a gap closing max distance of 1.2 μm. Tracks with only two spots were discarded. For the parameter sensitivity analysis, each tracking or spot detection was varied as indicated, whilst the others were kept at aforementioned values (Basis scenario).
With the Glyco-PAINT-APP utility ‘Generate Squares’, a grid of squares was overlaid, and kinetic properties for each square were calculated. Default parameters for grid processing are (deviations are mentioned in figure captions): Nr of Squares in row 20, Minimum Tracks to Calculate Tau 20, Min allowable R Squared 0.1, Min Required Density Ratio 2, Maximum Allowable Variability 10 and Neighbour Mode Free.
For every recording, a background track count was calculated by averaging the track count of the 40 (10% of the total number of squares) least dense squares. Only squares for which the track count exceeded the Min Required Density Ratio of 2 were considered (and the remaining ignored as background). For each square, the variability was calculated and only squares for which the variability was less than the Maximum Allowable Variability of 10 were considered. For squares meeting both the Minimum Required Density Ratio and Maximum Allowable Variability criteria, and containing at least the Minimum Tracks to Calculate Tau kinetic parameters, including kon, koff and MSD were calculated as in Riera et al.[10], or copied from the TrackMate Tracks table output (for velocity, displacement, and track duration).

[1] = system: WT BMDC with OT-I T cells; test: T cell proliferation assay (cross-presentation to OT-I T cells), WT BMDC; format: cell-based, mouse; conditions: Fig 4f source data; 40 nM SLP pulse 2 h, MPLA-matured BMDC, 3 d coculture with OT-I; per experiment, two technical replicates
Description: A 70 µm filter was placed on a 50 mL tube and pre-wetted with PBS supplemented with 2 mM EDTA and 2% FCS (single-cell suspension buffer, SCSB). Freshly harvested spleens from OT-I transgenic mice were placed on the filter and disrupted with the back end of a syringe. After thorough washing, the suspension was centrifuged (10 min., 300 rcf, rt). Next, the pellet was gently resuspended in 2 mL of ACK lysing buffer (Gibco, A1049201). After 3 min incubation, the suspension was diluted with 10 mL PBS, filtered once more, and centrifuged again (300 rcf, 10 min, rt). The pellet was resuspended and subjected to magnetically-activated depletion of non-target cells using the “Naïve CD8a+ T cell isolation Kit” (Miltenyi, 130-096-543) according to manufacturer’s protocol. The obtained T cells were counted and resuspended at a density of 5-15 x 10^6/mL in 1 mL PBS with 5 µM CFSE (Biolegend) and incubated for 15 min. at 37 °C. After incubation, cells were spun down (10 min, 300 rcf, rt), washed once more with complete RPMI-1640 and were ready for downstream use.
5 x 10^4 WT, MR^−/− BMDC or 1 x 10^5 splenic DC were seeded in 96-well Nunc U-bottom plates (Thermo Scientific, 168136) and pulsed with Glycan SLP at 40 nM for indicated time. In indicated experiments, DC were pretreated with 1 µg/mL MPLA (Avanti, 699800 P) for 2 h before antigen pulse. After antigen pulse was finished, the plate was spun down for 3 min at 600 rcf, washed once with complete RPMI-1640 and 1-1.5E5 freshly isolated, CFSE-stained OT-I T cells were added to the pulsed DCs in 200 µL complete RPMI-1640 and incubated at 37 °C. After 3 d of coculture, the plate was spun down (3 min, 600 rcf, 4 °C) and supernatant was removed and stored at −80 °C. Cells were washed with FACS buffer (PBS with 2 mM EDTA, 2% FCS and 7.4 mM NaN3) and stained with Aqua Live/DEAD (Invitrogen, L34957, 1:500), TruStain FcX (Biolegend, 101319, 1:100), CD8a—APC (clone: 53-7.6, Biolegend, 100711, 1:200), and TCR V beta 5.1/5.2—eFluor450 (clone: MR9-4, eBioscience, 48-5796-82) for 30 min on ice, washed two times and acquired on a BD Fortessa I flow cytometer and analyzed using FlowJo v8. To calculate mean cycle, the CFSE dilution factor was obtained by dividing the MFI of the antigen pulsed condition by the DMSO pulsed condition expressed as Log2[69]. Statistical analysis and plotting were performed using GraphPad Prism V10.

Substance	koff−1 (MR^−/− BMDC) [ms]	kon (MR^−/− BMDC) [evts μm−2 sec−1]	average number of cell divisions per T cell (mean cycles) [1]
Ac-Lys(triMan)-TEG-Asp-Glu-Val-Ser-Gly-Leu-Glu-Gln-Leu-Glu-Ser-Ile-Ile-Asn-Phe-Glu-Lys-Leu-Ala-Ala-Ala-Ala-Ala-Lys(sCy5)-NH2 (DEVSGLEQLESIINFEKLAAAAAK; Ac-Lys(triMan)-TEG, sulfo-Cy5, C-amide; printed: Asp-Glu-Val-Ser-Gly-Leu-Glu-Gln-Leu-Glu-Ser-Ile-Ile-Asn-Phe-Glu-Lys-Leu-Ala-Ala-Ala-Ala-Ala-Lys) [1 Tri(4), monovalent trimannosylated OVA SLP with sulfo-Cy5]	160	6	1.87 and 1.461 and 1.875 and 1.671 and 1.661 and 1.884
Ac-Lys(Man)-Lys(Man)-Lys(Man)-Lys(Man)-Lys(Man)-Lys(Man)-TEG-Asp-Glu-Val-Ser-Gly-Leu-Glu-Gln-Leu-Glu-Ser-Ile-Ile-Asn-Phe-Glu-Lys-Leu-Ala-Ala-Ala-Ala-Ala-Lys(sCy5)-NH2 ({Ac-K(Man)-K(Man)-K(Man)-K(Man)-K(Man)-K(Man)-TEG}-DEVSGLEQLESIINFEKLAAAAAK(sCy5)-NH2) [6 Mono(3), hexavalent monomannosylated OVA SLP with sulfo-Cy5]	180	6.3	1.958 and 1.615 and 1.514 and 1.427 and 1.57 and 1.31
Ac-Lys(triMan)-Lys(triMan)-Lys(triMan)-Lys(triMan)-Lys(triMan)-Lys(triMan)-TEG-Asp-Glu-Val-Ser-Gly-Leu-Glu-Gln-Leu-Glu-Ser-Ile-Ile-Asn-Phe-Glu-Lys-Leu-Ala-Ala-Ala-Ala-Ala-Lys(sCy5)-NH2 (DEVSGLEQLESIINFEKLAAAAAK; six Lys(triMan), TEG, sulfo-Cy5, C-amide; printed: Asp-Glu-Val-Ser-Gly-Leu-Glu-Gln-Leu-Glu-Ser-Ile-Ile-Asn-Phe-Glu-Lys-Leu-Ala-Ala-Ala-Ala-Ala-Lys) [6 Tri(6), hexavalent trimannosylated OVA SLP with sulfo-Cy5]	115	1.1	0.3003 and 0.3873 and 0.4343 and 0.4095 and 0.438

Second part, led by results:

koff−1 (MR^−/− BMDC) [ms]	kon (MR^−/− BMDC) [evts μm−2 sec−1]	Substance	average number of cell divisions per T cell (mean cycles) [1]
151	2	Ac-Lys(Man)-Gly-Lys(Man)-TEG-Asp-Glu-Val-Ser-Gly-Leu-Glu-Gln-Leu-Glu-Ser-Ile-Ile-Asn-Phe-Glu-Lys-Leu-Ala-Ala-Ala-Ala-Ala-Lys(sCy5)-NH2 ({Ac-K(Man)-Gly-K(Man)-TEG}-DEVSGLEQLESIINFEKLAAAAAK(sCy5)-NH2) [2 Mono(2), bivalent monomannosylated OVA SLP with sulfo-Cy5]	1.851 and 1.961 and 2.178 and 1.94 and 2.008 and 2.005
141	4.6	Ac-Lys(triMan)-Gly-Lys(triMan)-TEG-Asp-Glu-Val-Ser-Gly-Leu-Glu-Gln-Leu-Glu-Ser-Ile-Ile-Asn-Phe-Glu-Lys-Leu-Ala-Ala-Ala-Ala-Ala-Lys(sCy5)-NH2 (DEVSGLEQLESIINFEKLAAAAAK; two Lys(triMan), TEG, sulfo-Cy5, C-amide; printed: Asp-Glu-Val-Ser-Gly-Leu-Glu-Gln-Leu-Glu-Ser-Ile-Ile-Asn-Phe-Glu-Lys-Leu-Ala-Ala-Ala-Ala-Ala-Lys) [2 Tri(5), bivalent trimannosylated OVA SLP with sulfo-Cy5]	0.8018 and 0.6166 and 1.144 and 1.271 and 1.393 and 1.229
182	6.2	Ac-Lys(Man)-TEG-Asp-Glu-Val-Ser-Gly-Leu-Glu-Gln-Leu-Glu-Ser-Ile-Ile-Asn-Phe-Glu-Lys-Leu-Ala-Ala-Ala-Ala-Ala-Lys(sCy5)-NH2 ({Ac-K(Man)-TEG}-DEVSGLEQLESIINFEKLAAAAAK(sCy5)-NH2) [1 Mono(1), monovalent monomannosylated OVA SLP with sulfo-Cy5]	2.424 and 2.329 and 2.498 and 2.6657 and 2.752 and 2.248
